Laboratory results published in patent publication US9322066B2, “Predictors for cancer treatment” (priority 2011, dated 2016).

System: relapsed or refractory, rituximab-naive or -sensitive follicular B-cell NHL
Test: Progression-free survival (PFS), Vc-R vs rituximab study, by biomarker
Assay type: in vivo, human
Source text: Non-Hodgkin lymphoma (NHL) encompasses several unique malignant lymphoid disease entities that vary in clinical behavior, morphologic appearance, immunologic, and molecular phenotype. […] A randomized, open-label, active-controlled, multicenter, multinational, prospective study to compare the efficacy and safety of the combination of bortezomib and rituximab (Vc-R) to single-agent rituximab in subjects who have relapsed or refractory, rituximab-naive or -sensitive follicular B-cell NHL was performed.
Subjects were centrally randomized to Treatment Groups A (Vc-R) or B (rituximab) in a 1:1 ratio taking into account the following stratification factors: • Follicular Lymphoma International Prognostic Index (FLIPI) score (low [0 or 1 factor], intermediate [2 factors], high [≧3 factors]); • Prior rituximab therapy (yes, no); • Time since last dose of anti-lymphoma therapy (≦1 year, >1 year); • Region (United States/Canada, European Union, Rest of World).
The following clinical endpoints were included in the analysis within each treatment group and an overall comparison was made with the biomarker-related endpoints: Progression-free survival, defined as the interval between the date of randomization and the date of progressive disease (PD) or death, whichever is first reported in the ITT population; overall survival; overall response rate (complete response [CR]+CR unconfirmed [CRu]+partial response [PR]); overall CR rate (CR+CRu); duration of response; time to next anti-lymphoma therapy; and treatment free interval.
For single-marker association analyses and pair-wise comparisons, a log rank test and Cox proportional hazard model was utilized for assessments of PFS, TTP, and OS between the treatment groups. Kaplan-Meier curves were utilized to estimate the distribution differences between groups in the time-to-event analyses. Comparison of the response rates between the treatment groups was conducted using the Fishers exact test. Single-marker association analyses were stratified by the covariates.
For pair-wise comparison analysis, biomarker pairs were formed by combinations of two markers. A log rank test was utilized for assessments of PFS, TTP, and OS between the treatment groups in the subpopulation defined by biomarker pairs. Kaplan-Meier curves were utilized to estimate the distribution differences between groups in the time-to-event analyses. Comparison of the response rates between the treatment groups was conducted using the Fishers exact test. Methods of Analysis for the multiple biomarker comparison models can be found in section 4.6.
The stratified log rank test and Cox proportional hazard model was utilized for assessments of PFS between the treatment groups. The Kaplan-Meier method was to be used to estimate the distribution of overall PFS for each treatment group in the biomarker population, and overall; stratified by expression level, SNP, or mutation (or covariate groups as noted above). The hazard ratio and 95% confidence interval was based on a stratified Cox's proportion hazard model with treatment as the explanatory variable. Analyses were done for the population overall and by treatment group, and each of these analyses were also stratified by the following factors if sufficient sample size existed: […]

rituximab
Median PFS (Vc − R vs R) (20S % NUCLEAR STAINING 30-90 + 20S INTENSITY CYTOPLASMIC SIGNAL >=3+, Excluded): 347 days
Median PFS (Vc − R vs R) (20S % NUCLEAR STAINING 30-90 + 20S INTENSITY CYTOPLASMIC SIGNAL >=3+, Selected): 280 days
Median PFS (Vc − R vs R) (20S % NUCLEAR STAINING 30-90 + 20S INTENSITY CYTOPLASMIC SIGNAL >=3+, Total): 345 days
Median PFS (Vc-R vs R) (AGEGRP <=65 + CD68 POSITIVE FOLLICULAR 0-50, Excluded): 427 days
Median PFS (Vc-R vs R) (AGEGRP <=65 + CD68 POSITIVE FOLLICULAR 0-50, Selected): 275 days
Median PFS (Vc-R vs R) (AGEGRP <=65 + CD68 POSITIVE FOLLICULAR 0-50, Total): 346 days
Median PFS (Vc − R vs R) (AGEGRP <=65 + CD68 POSITIVE PERIFOLLICULAR 0-50, Excluded): 351 days
Median PFS (Vc − R vs R) (AGEGRP <=65 + CD68 POSITIVE PERIFOLLICULAR 0-50, Selected): 281 days
Median PFS (Vc − R vs R) (AGEGRP <=65 + CD68 POSITIVE PERIFOLLICULAR 0-50, Total): 346 days
Median PFS (Vc − R vs R) (AGEGRP <=65 + P27 % NUCLEI POSITIVE 0-70, Excluded): 348 days
Median PFS (Vc − R vs R) (AGEGRP <=65 + P27 % NUCLEI POSITIVE 0-70, Selected): 279 days
Median PFS (Vc − R vs R) (AGEGRP <=65 + P27 % NUCLEI POSITIVE 0-70, Total): 345 days
PFS median (Biomarker Negative (all subjects without the pair), N = 238): 12.5 months
PFS median (Biomarker Positive (PSMB P11A heterozygote and CD68 Low), N = 118): 9.1 months
PFS median (CD68 OVERALL POSITIVE 0-25): 10.6 mo
PFS median (CD68 OVERALL POSITIVE 26-50): 9.3 mo
PFS median (CD68 POSITIVE FOLLICULAR 0-25): 9.3 mo
Median PFS (Vc − R vs R) (CD68 POSITIVE FOLLICULAR 0-50 + CD68 POSITIVE PERIFOLLICULAR 0-50, Excluded): 351 days
Median PFS (Vc − R vs R) (CD68 POSITIVE FOLLICULAR 0-50 + CD68 POSITIVE PERIFOLLICULAR 0-50, Selected): 282 days
Median PFS (Vc − R vs R) (CD68 POSITIVE FOLLICULAR 0-50 + CD68 POSITIVE PERIFOLLICULAR 0-50, Total): 346 days
Median PFS (Vc − R vs R) (CD68 POSITIVE FOLLICULAR 0-50 + P65 % POSITIVE CYTOPLASMIC SIGNAL >90%, Excluded): 486 days
Median PFS (Vc − R vs R) (CD68 POSITIVE FOLLICULAR 0-50 + P65 % POSITIVE CYTOPLASMIC SIGNAL >90%, Selected): 279 days
Median PFS (Vc − R vs R) (CD68 POSITIVE FOLLICULAR 0-50 + P65 % POSITIVE CYTOPLASMIC SIGNAL >90%, Total): 346 days
PFS median (CD68 POSITIVE FOLLICULAR 26-50): 9.1 mo
PFS median (CD68 Pos Follic (0-50) & P11A[C/G]**, first line (P 0.0025)): 8.5 mo
PFS median (CD68 Pos Follic (0-50) & P11A[C/G]**, second line (n.s.)): 9.2 mo
PFS (CD68 high): did better on rituximab alone
Median PFS (Vc-R vs R) (Excluded: 20S % NUCLEAR STAINING 30-90 and P65 % POSITIVE CYTOPLASMIC SIGNAL >90%): 419 days
Median PFS (Vc-R vs R) (Excluded: AGEGRP <=65 and CD68 OVERALL POSITIVE 0-50): 351 days
Median PFS (Vc-R vs R) (Excluded: AGEGRP <=65 and P65 % POSITIVE CYTOPLASMIC SIGNAL >90%): 414 days
Median PFS (Vc-R vs R) (Excluded: CD68 OVERALL POSITIVE 0-50 and P65 % POSITIVE C[…] >90%): 375 days
Median PFS (Vc-R vs R) (Excluded: FLIPI High and P65 % POSITIVE CYTOPLASMIC SIGNAL >90%): 378 days
Median PFS (Vc-R vs R) (Excluded: PRITUX NO and P65 % NUCLEAR STAINING 0): 346 days
Median PFS (Vc-R vs R) (Excluded: PSMB1/P11A C/G and ANNARBOR >=III): 375 days
Median PFS (Vc-R vs R) (Excluded: PSMB1/P11A C/G and P65 % NUCLEAR STAINING 0): 346 days
Median PFS (Vc − R vs R) (FLIPI High + P27 % NUCLEI POSITIVE 0-70, Excluded): 351 days
Median PFS (Vc − R vs R) (FLIPI High + P27 % NUCLEI POSITIVE 0-70, Selected): 212 days
Median PFS (Vc − R vs R) (FLIPI High + P27 % NUCLEI POSITIVE 0-70, Total): 345 days
PFS median (HI Tumor BD NO & CD68 OVERALL POSITIVE: 0-50): 16 mo
PFS median (HI Tumor BD NO & CD68 POSITIVE FOLLICULAR: 0-50): 13.8 mo
PFS median (P65 Cytoplasmic signal >90% & 1 prior treatment*, first line (P 0.0132)): 10.6 mo
PFS median (P65 Cytoplasmic signal >90% & 1 prior treatment*, second line (n.s.)): 8.9 mo
PFS median (P65 INTENSITY CYTOPLASMIC SIGNAL <=1+): 9.3 mo
PFS median (PSMB1/P11A C/G): 9.3 mo
PFS median (PSMB1/P11A C/G & 20S % POSITIVE CYTOPLASMIC SIGNAL: >90): 9.5 mo
PFS median (PSMB1/P11A C/G & Age group: <=65): 9.2 mo
PFS median (PSMB1/P11A C/G & CD68 POSITIVE FOLLICULAR: 0-50): 9.1 mo
PFS median (PSMB1/P11A C/G & CD68 POSITIVE PERIFOLLICULAR: >50): 9.2 mo
PFS median (PSMB1/P11A C/G & PSMB5/R24C C/T): 7.8 mo
PFS median (PSMB1/P11A C/G & Time since last Rx: >1 year): 10.7 mo
Median PFS (Vc-R vs R) (PSMB1/P11A C/G + 20S % NUCLEAR STAINING 30-90, Excluded): 346 days
Median PFS (Vc-R vs R) (PSMB1/P11A C/G + 20S % NUCLEAR STAINING 30-90, Selected): 275 days
Median PFS (Vc-R vs R) (PSMB1/P11A C/G + 20S % NUCLEAR STAINING 30-90, Total): 345 days
Median PFS (Vc-R vs R) (PSMB1/P11A C/G + 20S INTENSITY CYTOPLASMIC SIGNAL <=2+, Excluded): 345 days
Median PFS (Vc-R vs R) (PSMB1/P11A C/G + 20S INTENSITY CYTOPLASMIC SIGNAL <=2+, Selected): 278 days
Median PFS (Vc-R vs R) (PSMB1/P11A C/G + 20S INTENSITY CYTOPLASMIC SIGNAL <=2+, Total): 345 days
Median PFS (Vc-R vs R) (PSMB1/P11A C/G + AGEGRP <=65, Excluded): 348 days
Median PFS (Vc-R vs R) (PSMB1/P11A C/G + AGEGRP <=65, Selected): 279 days
Median PFS (Vc-R vs R) (PSMB1/P11A C/G + AGEGRP <=65, Total): 345 days
Median PFS (Vc − R vs R) (PSMB1/P11A C/G + CD68 OVERALL POSITIVE 0-50, Excluded): 348 days
Median PFS (Vc − R vs R) (PSMB1/P11A C/G + CD68 OVERALL POSITIVE 0-50, Selected): 278 days
Median PFS (Vc − R vs R) (PSMB1/P11A C/G + CD68 OVERALL POSITIVE 0-50, Total): 345 days
Median PFS (Vc-R vs R) (PSMB1/P11A C/G + P27 % NUCLEI POSITIVE 0-70, Excluded): 348 days
Median PFS (Vc-R vs R) (PSMB1/P11A C/G + P27 % NUCLEI POSITIVE 0-70, Selected): 277 days
Median PFS (Vc-R vs R) (PSMB1/P11A C/G + P27 % NUCLEI POSITIVE 0-70, Total): 338 days
Median PFS (Vc-R vs R) (PSMB1/P11A C/G + P27 SIGNAL INTENSITY >=2+, Excluded): 346 days
Median PFS (Vc-R vs R) (PSMB1/P11A C/G + P27 SIGNAL INTENSITY >=2+, Selected): 280 days
Median PFS (Vc-R vs R) (PSMB1/P11A C/G + P27 SIGNAL INTENSITY >=2+, Total): 338 days
